Laboratory results published in patent publication US20070161560A1, “Use of vanilloid 4 receptor and antagonists or agonists thereof for treating diseases associated with pain” (SmithKline Beecham plc, priority 2000, published 2007).

Tests used:
Type in all cases: cell-based
[1] = system: HEK293 cells transfected with empty vector; test: FLIPR cytoplasmic calcium (Fluo-3), HEK293 cells transfected with empty vector; conditions: result in words
Description: (§1) The VR4 cDNA was inserted into the expression vector pcDNA3.1 V5-His (Invitrogen). Wildtype HEK293 cells, or HEK293 cells transfected with the human VR4:pcDNA3.1 V5-His construct, or mock transfected cells, or bovine chondrocytes, were seeded into 96-well microtitre plates at 25,000 cells/well and cultured overnight. The cells were then incubated with 4 microM Fluo-3 for 2 hrs at room temperature in the dark. Dye loaded cells were washed 4× with Tyrodes buffer: (NaCl, 145 mM; KCl, 2.5 mM; Hepes, 10 mM; Glucose, 10 mM; MgC12, 1.2 mM; CaCl2, 1.5 mM), which also contained 0.2% BSA but not probenecid. Agonists and antagonists were also prepared in Tyrodes buffer. Cells were preincubated for 30 mins with antagonist or buffer. Agonist addition and measurement of cytoplasmic calcium concentration was performed in the FLIPR (Smart et al., (2000) Br. J. Pharmacol. 129, 227-230).

human VR1 = human VR1 (Homo sapiens, UniProt Q8NER1); conditions: for activity at VR1: result in words; for pEC50 hVR1: increase of intracellular calcium, human VR1, mean ± s.e. mean, n = 3-5, IA = inactive
human VR1, sequence (Q8NER1 whole entry): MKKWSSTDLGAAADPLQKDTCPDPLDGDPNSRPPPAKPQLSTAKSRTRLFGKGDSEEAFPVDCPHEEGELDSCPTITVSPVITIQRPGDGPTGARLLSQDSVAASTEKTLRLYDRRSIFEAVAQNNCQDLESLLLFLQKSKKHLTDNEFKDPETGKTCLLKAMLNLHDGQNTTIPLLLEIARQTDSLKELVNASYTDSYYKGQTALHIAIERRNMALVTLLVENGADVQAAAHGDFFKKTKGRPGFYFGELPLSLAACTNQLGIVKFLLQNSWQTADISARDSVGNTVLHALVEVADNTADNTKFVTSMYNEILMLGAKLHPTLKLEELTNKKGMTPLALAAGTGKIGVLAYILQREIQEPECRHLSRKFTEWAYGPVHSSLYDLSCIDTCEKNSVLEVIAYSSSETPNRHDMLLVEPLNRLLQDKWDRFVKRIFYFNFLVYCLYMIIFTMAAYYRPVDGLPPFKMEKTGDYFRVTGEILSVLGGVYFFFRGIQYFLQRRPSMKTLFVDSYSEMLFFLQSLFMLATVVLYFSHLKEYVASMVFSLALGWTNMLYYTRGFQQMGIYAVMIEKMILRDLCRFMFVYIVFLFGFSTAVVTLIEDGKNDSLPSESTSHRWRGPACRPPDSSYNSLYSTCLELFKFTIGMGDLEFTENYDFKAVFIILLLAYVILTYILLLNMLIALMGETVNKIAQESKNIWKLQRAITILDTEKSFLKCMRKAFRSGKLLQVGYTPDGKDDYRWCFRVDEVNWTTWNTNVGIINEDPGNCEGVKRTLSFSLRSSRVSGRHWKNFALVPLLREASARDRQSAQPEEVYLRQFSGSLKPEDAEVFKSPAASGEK

human VR4 = molecular target: T1, human VR4 (Homo sapiens, UniProt Q9HBA0); test: FLIPR cytoplasmic calcium (Fluo-3), HEK293 cells transfected with human VR4; conditions: for effect on intracellular calcium in HEK293-VR4 cells: result in words; for pEC50 hVR4: increase of intracellular calcium, mean ± s.e. mean, n = 3-5, IA = inactive; for effect on intracellular calcium in HEK293-VR4 cells / pEC50 hVR4: HEK293-VR4 cells
T1 construct: V5-His (vector-encoded); expressed in transfected cells; host or cells: HEK293
T1 sequence (Q9HBA0 whole entry): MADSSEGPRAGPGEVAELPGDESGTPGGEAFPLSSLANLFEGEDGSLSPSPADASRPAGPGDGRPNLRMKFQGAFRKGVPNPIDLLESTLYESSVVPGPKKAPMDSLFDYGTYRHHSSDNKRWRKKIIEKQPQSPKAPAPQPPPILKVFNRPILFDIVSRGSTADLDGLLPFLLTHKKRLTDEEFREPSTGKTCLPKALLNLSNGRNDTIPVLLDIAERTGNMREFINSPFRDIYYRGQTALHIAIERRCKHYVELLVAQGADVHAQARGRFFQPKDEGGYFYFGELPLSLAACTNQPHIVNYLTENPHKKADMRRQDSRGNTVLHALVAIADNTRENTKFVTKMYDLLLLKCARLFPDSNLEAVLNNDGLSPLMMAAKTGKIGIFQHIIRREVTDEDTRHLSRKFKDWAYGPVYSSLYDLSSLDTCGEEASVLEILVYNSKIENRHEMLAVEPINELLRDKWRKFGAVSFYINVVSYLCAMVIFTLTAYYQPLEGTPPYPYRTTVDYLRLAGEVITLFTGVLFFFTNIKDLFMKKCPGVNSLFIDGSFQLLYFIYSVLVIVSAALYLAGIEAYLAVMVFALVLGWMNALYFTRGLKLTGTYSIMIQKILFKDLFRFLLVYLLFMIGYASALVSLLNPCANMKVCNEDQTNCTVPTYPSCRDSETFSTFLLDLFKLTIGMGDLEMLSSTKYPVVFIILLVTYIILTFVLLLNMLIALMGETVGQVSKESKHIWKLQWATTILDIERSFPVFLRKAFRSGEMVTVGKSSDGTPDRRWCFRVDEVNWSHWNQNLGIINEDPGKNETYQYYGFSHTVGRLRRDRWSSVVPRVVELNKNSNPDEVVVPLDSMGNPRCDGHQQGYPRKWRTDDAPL
Description: as §1

wild type HEK293 cells = test: FLIPR cytoplasmic calcium (Fluo-3), wild type HEK293 cells; conditions: result in words
Description: as §1

[2] = system: VR4 endogenously expressed by chondrocytes; test: FLIPR cytoplasmic calcium (Fluo-3), bovine articular chondrocytes; conditions: channel blocker against the 4α-PDD response
Description: as §1
The response was dependent upon extracellular calcium ions and was blocked by the channel blocker ruthenium red.

SMILES | effect on intracellular calcium in cells transfected with empty vector [1] | activity at VR1 (human VR1) | effect on intracellular calcium in HEK293-VR4 cells (human VR4) | selectivity VR4 over VR1 (human VR4; conclusion from pEC50 at hVR4 and hVR1) | pEC50 hVR4 (human VR4) | effect on intracellular calcium in wild type HEK293 cells (wild type HEK293 cells) | Emax at VR1 (human VR1; compared to capsaicin and RTX) | pEC50 hVR1 (human VR1) | block of the response to 4α-PDD in bovine articular chondrocytes [2]
CCCCCCCCCC(=O)O[C@@H]1[C@@H](C)[C@@]2(O)[C@@H](C=C(CO)C[C@@]3(O)C(=O)C(C)=C[C@@H]23)[C@@H]2C(C)(C)[C@]12OC(=O)CCCCCCCCC [4αPDD, 4α-phorbol-12,13-didecanoate] | without effect | inactive | increased intracellular calcium | VR4 selective agonist | 5.73 ± 0.06 | without effect | – | – | –
CCCCCCCCCCCCCC(=O)O[C@@H]1[C@@H](C)[C@@]2(O)[C@@H](C=C(CO)C[C@]3(O)C(=O)C(C)=C[C@@H]23)[C@@H]2C(C)(C)[C@]12OC(C)=O [PMA, phorbol 12-myristate 13-acetate] | without effect | partial agonist | increased intracellular calcium | – | 6.64 ± 0.06 | without effect | 0.46 | 7.86 ± 0.06 | –
C=C(C)[C@]12C[C@@H](C)[C@@]34O[C@](Cc5ccccc5)(O[C@@H]1[C@@H]3C=C(COC(=O)Cc1ccc(O)c(OC)c1)C[C@]1(O)C(=O)C(C)=C[C@@H]41)O2 [RTX] | – | – | – | – | – | – | – | 8.93 ± 0.20 | –
N.N.N.N.N.N.N.N.N.N.N.N.N.N.[Cl-].[Cl-].[Cl-].[Cl-].[Cl-].[Cl-].[O-2].[O-2].[Ru+3].[Ru+3].[Ru+4] [ruthenium red] | – | – | – | – | – | – | – | – | blocked
